Assay results as given in patent US10597388B2, “Pyridazinone herbicides” (FMC CORPORATION, priority 2014, dated 2020).

Key:
Experiment in all cases: Test D controlled growth environment herbicide test, pre- and postemergence
Type in all cases: in vivo
[1] = test system: Russian thistle (Salsola kali)
Method in brief: (§1)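 Pre-emergence: seeds sown in silt loam soil were sprayed with compound in a non-phytotoxic solvent mix containing surfactant. Post-emergence: plants at 2 to 18 cm (1- to 4-leaf stage) in peat moss/vermiculite medium got the same formulation. Visual 0–100 rating versus controls after 14 to 21 d.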

[2] = test system: barley, spring (spring barley, Hordeum vulgare)
Method in brief: as §1

[3] = test system: bluegrass (annual bluegrass, Poa annua)
Method in brief: as §1

[4] = test system: buckwheat, wild (wild buckwheat, Polygonum convolvulus)
Method in brief: as §1

[5] = test system: canarygrass (Phalaris minor)
Method in brief: as §1

[6] = test system: deadnettle (henbit deadnettle, Lamium amplexicaule)
Method in brief: as §1

[7] = test system: field violet (Viola arvensis)
Method in brief: as §1

[8] = test system: galium (catchweed bedstraw, Galium aparine)
Method in brief: as §1

kochia (Kochia scoparia) = test system: kochia (Kochia scoparia)
Method in brief: as §1

[9] = test system: oilseed rape (Brassica napus)
Method in brief: as §1

[10] = test system: radish, wild (wild radish, Raphanus raphanistrum)
Method in brief: as §1

[11] = test system: ryegrass, Italian (Italian ryegrass, Lolium multiflorum)
Method in brief: as §1

[12] = test system: speedwell (bird's-eye speedwell, Veronica persica)
Method in brief: as §1

[13] = Postemergence, 31 g ai/ha, scale 0 to 100 (0 no effect, 100 complete control)
[14] = Postemergence, 125 g ai/ha, visual rating on scale 0 (no effect) to 100 (complete control), 14 to 21 d
[15] = Postemergence, 250 g ai/ha, scale 0 to 100 (0 no effect, 100 complete control)
[16] = Preemergence, 125 g ai/ha, scale 0 to 100 (0 no effect, 100 complete control)
[17] = Preemergence, 250 g ai/ha, scale 0 to 100, 0 no effect, 100 complete control
[18] = postemergence, 62 g ai/ha, scale 0 to 100, 0 no effect, 100 complete control
[19] = Preemergence, 62 g ai/ha, scale 0 to 100 (0 no effect, 100 complete control)

Cc1nn(C)c(=O)c(-c2cccc3ccc(Br)cc23)c1O [Compound 126]
Russian Thistle plant response rating [1, 13]: 30
Plant response rating, Russian Thistle [1, 14]: 80
Plant response rating, Russian Thistle [1, 15]: 85
Plant response rating (scale of 0 to 100), Russian Thistle ([1]; Preemergence, 31 g ai/ha): 0
Plant response rating (scale of 0 to 100), Russian Thistle ([1]; Preemergence, 62 g ai/ha): 0
Plant response rating, Russian Thistle [1, 16]: 5
Plant response rating, Russian Thistle [1, 17]: 15
Plant response rating, Russian Thistle [1, 18]: 40
Barley, Spring plant response rating [2, 13]: 0
Plant response rating, Barley, Spring [2, 14]: 10
Plant response rating, Barley, Spring [2, 15]: 10
Plant response rating (scale of 0 to 100), Barley, Spring ([2]; Preemergence, 31 g ai/ha): 0
Plant response rating, Barley, Spring [2, 19]: 0
Plant response rating, Barley, Spring [2, 16]: 0
Plant response rating, Barley, Spring [2, 17]: 0
Plant response rating, Barley, Spring [2, 18]: 0
Bluegrass plant response rating [3, 13]: 0
Plant response rating, Bluegrass [3, 14]: 15
Plant response rating, Bluegrass [3, 15]: 15
Plant response rating (scale of 0 to 100), Bluegrass ([3]; Preemergence, 31 g ai/ha): 5
Plant response rating, Bluegrass [3, 19]: 5
Plant response rating, Bluegrass [3, 16]: 30
Plant response rating, Bluegrass [3, 17]: 40
Plant response rating, Bluegrass [3, 18]: 10
Buckwheat, Wild plant response rating [4, 13]: 70
Plant response rating, Buckwheat, Wild [4, 14]: 100
Plant response rating, Buckwheat, Wild [4, 15]: 100
Plant response rating (scale of 0 to 100), Buckwheat, Wild ([4]; Preemergence, 31 g ai/ha): 0
Plant response rating, Buckwheat, Wild [4, 19]: 0
Plant response rating, Buckwheat, Wild [4, 16]: 10
Plant response rating, Buckwheat, Wild [4, 17]: 25
Plant response rating, Buckwheat, Wild [4, 18]: 100
Canarygrass plant response rating [5, 13]: 20
Plant response rating, Canarygrass [5, 14]: 45
Plant response rating, Canarygrass [5, 15]: 75
Plant response rating (scale of 0 to 100), Canarygrass ([5]; Preemergence, 31 g ai/ha): 15
Plant response rating (scale of 0 to 100), Canarygrass ([5]; Preemergence, 62 g ai/ha): 50
Plant response rating, Canarygrass [5, 16]: 80
Plant response rating, Canarygrass [5, 17]: 90
Plant response rating, Canarygrass [5, 18]: 35
Deadnettle plant response rating [6, 13]: 40
Plant response rating, Deadnettle [6, 14]: 80
Plant response rating, Deadnettle [6, 15]: 85
Plant response rating (scale of 0 to 100), Deadnettle ([6]; Preemergence, 31 g ai/ha): 0
Plant response rating (scale of 0 to 100), Deadnettle ([6]; Preemergence, 62 g ai/ha): 45
Plant response rating, Deadnettle [6, 16]: 70
Plant response rating, Deadnettle [6, 17]: 80
Plant response rating, Deadnettle [6, 18]: 70
Field Violet plant response rating [7, 13]: 85
Plant response rating, Field Violet [7, 14]: 90
Plant response rating, Field Violet [7, 15]: 100
Plant response rating (scale of 0 to 100), Field Violet ([7]; Preemergence, 31 g ai/ha): 85
Plant response rating (scale of 0 to 100), Field Violet ([7]; Preemergence, 62 g ai/ha): 85
Plant response rating, Field Violet [7, 16]: 100
Plant response rating, Field Violet [7, 17]: 100
Plant response rating, Field Violet [7, 18]: 85
Galium plant response rating [8, 13]: 90
Plant response rating, Galium [8, 14]: 100
Plant response rating, Galium [8, 15]: 100
Plant response rating (scale of 0 to 100), Galium ([8]; Preemergence, 31 g ai/ha): 50
Plant response rating (scale of 0 to 100), Galium ([8]; Preemergence, 62 g ai/ha): 70
Plant response rating, Galium [8, 16]: 85
Plant response rating, Galium [8, 17]: 98
Plant response rating, Galium [8, 18]: 100
Kochia plant response rating (kochia (Kochia scoparia); [13]): 75
Plant response rating, Kochia (kochia (Kochia scoparia); [14]): 95
Plant response rating, Kochia (kochia (Kochia scoparia); [15]): 100
Plant response rating (scale of 0 to 100), Kochia (kochia (Kochia scoparia); Preemergence, 31 g ai/ha): 10
Plant response rating (scale of 0 to 100), Kochia (kochia (Kochia scoparia); Preemergence, 62 g ai/ha): 20
Plant response rating, Kochia (kochia (Kochia scoparia); [16]): 75
Plant response rating, Kochia (kochia (Kochia scoparia); [17]): 95
Plant response rating, Kochia (kochia (Kochia scoparia); [18]): 80
Oilseed Rape plant response rating [9, 13]: 60
Plant response rating, Oilseed Rape [9, 14]: 75
Plant response rating, Oilseed Rape [9, 15]: 85
Plant response rating (scale of 0 to 100), Oilseed Rape ([9]; Preemergence, 31 g ai/ha): 0
Plant response rating (scale of 0 to 100), Oilseed Rape ([9]; Preemergence, 62 g ai/ha): 0
Plant response rating, Oilseed Rape [9, 16]: 15
Plant response rating, Oilseed Rape [9, 17]: 90
Plant response rating, Oilseed Rape [9, 18]: 65
Radish, Wild plant response rating [10, 13]: 40
Plant response rating, Radish, Wild [10, 14]: 75
Plant response rating, Radish, Wild [10, 15]: 95
Plant response rating (scale of 0 to 100), Radish, Wild ([10]; Preemergence, 31 g ai/ha): 5
Plant response rating (scale of 0 to 100), Radish, Wild ([10]; Preemergence, 62 g ai/ha): 15
Plant response rating, Radish, Wild [10, 16]: 75
Plant response rating, Radish, Wild [10, 17]: 90
Plant response rating, Radish, Wild [10, 18]: 70
Ryegrass, Italian plant response rating [11, 13]: 85
Plant response rating, Ryegrass, Italian [11, 14]: 90
Plant response rating, Ryegrass, Italian [11, 15]: 90
Plant response rating (scale of 0 to 100), Ryegrass, Italian ([11]; Preemergence, 31 g ai/ha): 75
Plant response rating (scale of 0 to 100), Ryegrass, Italian ([11]; Preemergence, 62 g ai/ha): 90
Plant response rating, Ryegrass, Italian [11, 16]: 98
Plant response rating, Ryegrass, Italian [11, 17]: 100
Plant response rating, Ryegrass, Italian [11, 18]: 90
Speedwell plant response rating [12, 13]: 60
Plant response rating, Speedwell [12, 14]: 100
Plant response rating, Speedwell [12, 15]: 100
Plant response rating (scale of 0 to 100), Speedwell ([12]; Preemergence, 31 g ai/ha): 70
Plant response rating (scale of 0 to 100), Speedwell ([12]; Preemergence, 62 g ai/ha): 100
Plant response rating, Speedwell [12, 16]: 100
Plant response rating, Speedwell [12, 17]: 100
Plant response rating, Speedwell [12, 18]: 65
